Data taken from PMC12435690, “KYLO-0603, a novel liver-targeting, thyroid hormone receptor-β agonist for the inhibition of MASH progression” (PLOS One, 2025).

Legend:
[1] = Metabolic stability in plasma (humans); conditions: human
Experimental: (§2) We evaluated the metabolic stability of Kylo-0603 in the plasma of CD-1 mice, Sprague–Dawley (SD) rats, beagle dogs, cynomolgus monkeys, and humans. The plasma from the five species was mixed with Kylo-0603 (2 μM) and incubated at 37°C in a thermostatic water tank. The plasma concentrations of Kylo-0603 were monitored via LC-MS/MS at 0, 10, 30, 60, and 120 min.

[2] = in vitro; conditions: CD-1, mouse, plasma
Experimental: as §2

[3] = in vitro; conditions: Sprague-Dawley, rat, plasma
Experimental: as §2

[4] = system: liver of the MASH mouse models (F2 ~ 3); assay: Gene expression analysis (transcriptome sequencing) in liver of MASH mouse models; format: in vivo, C57BL/6J mice
Experimental: Transcriptome sequencing was performed on the Illumina sequencing platform, and the library sequencing and biotechnological analysis were performed by Beijing Novozymes Technology Co.
To explore the mechanism by which Kylo-0603 promotes lipid metabolism, we used Illumina’s NEBNext® UtraTM RNA Library Prep Kit to examine the expression of relevant genes in the livers of the MASH mouse models (F2 ~ 3) after Kylo-0603 administration (Fig 8). We first examined the expression of THR-regulated genes, including iodothyronine deiodinase 1 (Dio1), malic enzyme 1 (Me1), and thyroid hormone responsive (Thrsp). Me1 encodes an enzyme that catalyzes the conversion of malate to pyruvate while concomitantly generating NADPH from NADP, and its upregulation promotes energy metabolism. Thrsp is mainly a nuclear protein induced by thyroid hormones, carbohydrate intake, adipose tissue differentiation and lactation and plays an important role in the regulation of lipid metabolism. […] LDL-R (low-density lipoprotein receptor) promotes the cellular uptake of LDL and facilitates cholesterol degradation. […] This finding was consistent with a dose-dependent reduction in the serum LDL-C level (Fig 9A). […] This therapeutic effect was validated by assessing liver histopathology in animal models. Kylo-0603 inhibited the genes encoding the inflammatory factors Tnfrsf1a, IL6, IL17rb, and IL17ra (Fig 9B).
Fig 9 Effects of Kylo-0603 on the expression of related genes of the MASH mouse models. Total RNA was extracted from the frozen liver tissue of the MASH mouse models (F2 ~ 3), and the mice were injected daily with saline or Kylo-0603 at a dosage of 0.1–3 mg/kg/day. Transcriptome sequencing is based on the Illumina sequencing platform. The relative expression of a gene was calculated by normalizing the true expression level of the target gene to the expression level of that gene in the control group.

[5] = in vitro; conditions: cynomolgus monkey, plasma
Experimental: as §2

[6] = 28-day repeated-dose toxicity study in cynomolgus monkeys; format: in vivo
Experimental: (§1) To evaluate the preclinical safety profile of Kylo-0603, a novel liver-targeted thyroid hormone receptor β (TRβ) agonist with therapeutic potential, systematic toxicological assessments were conducted in both non-human primates (cynomolgus monkeys) and rodents (Sprague-Dawley rats). […] The no-observed-adverse-effect level (NOAEL) was determined to be 1.5 mg/kg/day. Collectively, these independent toxicological investigations substantiate Kylo-0603’s favorable safety, providing rigorous preclinical support for clinical advancement.

[7] = system: HFD-induced obese mice; assay: HFD-induced obese mice, oral once daily treatment; conditions: for fat content reduction / increase in the percentage of lean mass / reduction in Chol level / reduction in LDL-C level: vs HFD control; for Ballooning score / Fibrosis Score / Lobular inflammation score / NAFLD activity score / Steatosis score: DIO mice, HFD
Experimental: Experiments were performed on 112 (n = 16/group) male C57BL/6J mice (5 weeks). After 3 days of acclimatization, the animals were randomly divided according to body weight into a control group (Chow Diet) and a HFD group (HFD, 60% calories as fat, Cat# D12492, Research Diet, Jiangsu Xietong Pharmaceutical Bioengineering Co., Ltd.). The mice were fed with the corresponding diets for 16 weeks (with bedding shavings and a high-fat diet changed twice a week), during which the bedding shavings and high-fat diet (HFD) were refreshed twice weekly (see S1 Fig). Body weights were recorded on a weekly basis throughout this period. […] A separate cohort of mice, fed a standard chow diet, served as normal controls and received daily oral gavages of the vehicle. At the end of the experiment, the mice were fasted for 6 hours and then sacrificed. The animals were euthanized by CO2 inhalation and blood were collected along with liver and heart tissues. Collected blood samples were centrifuged to obtain the serum for the detection of cholesterol, triglyceride, and low-density lipoprotein cholesterol. The heart and liver tissues were weighed and photographed. The livers and hearts of the mice were rapidly removed and washed with cold saline. Half of the left lobe of liver was fixed in 4% neutral paraformaldehyde, and the remaining part of livers and hearts were snap-frozen and stored at −80°C for further analysis. The concentrations of serum lipids and liver enzymes from orbital or cardiac blood were determined by measuring triglycerides (TG), cholesterol (Chol), Low-density lipoprotein cholesterol (LDL-C), alanine transaminase (ALT), and aspartate transaminase (AST) levels using a Hitachi 7020 automated hematology laboratory and a Wako kit.
The dewaxed tissue slides were incubated in the alcohol-free hematoxylin staining solution for a period of 3–5 minutes, followed by thorough rinsing with running tap water. The slides were then subjected to differentiated and bluing for several seconds, after which they underwent sequential dehydration through a series of ethanol solutions with increasing concentrations (50%, 70%, 85%, and 95%). They were then subjected to eosin staining for a period of 5–10 minutes. The slides were then dehydrated sequentially with 95%, 100%, and 100% ethanol before being cleared with xylene. Finally, the slides were sealed with neutral gum, dried, and imaged.
The frozen sections were immersed in 60% isopropyl alcohol for 3–5 minutes, followed by immersion in Oil Red staining solution for 3–5 minutes. The samples were then washed with pure water. Following a wash with pure water, the nuclei were restained with hematoxylin, after which the sections were sealed with 50% glycerol, dried and photographed for imaging.
The dewaxed slides were rinsed in running water, stained with Sirius Red for 8–10 minutes, washed slightly in anhydrous ethanol, dehydrated, made transparent by gradient ethanol and xylene, and finally sealed with neutral gum, dried and photographed for imaging.

[8] = 182-day long-term dosing toxicity study in Sprague-Dawley rats; format: in vivo
Experimental: as §1

[9] = in vitro; conditions: beagle, dog, plasma
Experimental: as §2

[10] = Metabolic stability in plasma (cynomolgus monkeys); conditions: cynomolgus monkey
Experimental: as §2

With CC(=O)N[C@H]1[C@H](OCCCCCCNC(=O)CCOCC(COCCC(=O)NCCCCCCO[C@@H]2O[C@H](CO)[C@H](O)[C@H](O)[C@H]2NC(C)=O)(COCCC(=O)NCCCCCCO[C@@H]2O[C@H](CO)[C@H](O)[C@H](O)[C@H]2NC(C)=O)NC(=O)CCCCCNC(=O)COc2cc(C)c(Cc3ccc(O)c(C(C)C)c3)c(C)c2)O[C@H](CO)[C@H](O)[C@@H]1O [Kylo-0603] the “plasma stability” value [1] was “stable”, the half-life at 2 μM [2] was over 6.21 h and the half-life at 2 μM [3] was over 6.21 h. For the same molecule, the Atgl expression [4] was “dose-responsive elevation”, the Cpt1a expression [4] was “dose-dependent upregulation” and the Pdk4 expression [4] was “significant increases”. For the same molecule, the “Srebf1 and Scd1 expression” value [4] was “coordinated downregulation”, the “genes encoding the inflammatory factors Tnfrsf1a, IL6, IL17rb, IL17ra” value [4] was “inhibited” and the LDL-R gene expression ([4]; dose-dependent) was “upregulated”. The “expression of Dio1, Thrsp and Me1” value ([4]; dose-dependent) was “significantly upregulated”, the peroxisome-related genes ([4]; dose-dependent) was “upregulation” and the “expression of collagen synthesis genes” value ([4]; with increasing doses) was “significantly suppressed”. For the same molecule, the half-life at 2 μM [5] was over 6.21 h, the “perturbations of the hypothalamic-pituitary-thyroid (HPT) axis” value ([6]; cynomolgus monkeys) was “no perturbations” and the “macroscopic lesions or histopathological changes” value ([6]; oral 0.5, 1 and 5 mg/kg per day, 28 days, 56-day recovery) was “no macroscopic lesions or histopathological changes”. The “body weight reduction vs HFD control group” value (“body weight reduction” for short) ([7]; 0.1 mg/kg PO once daily, 10 weeks) was 0.8%, the fat content reduction ([7]; 0.1 mg/kg, 8 weeks) was 8.96% and the “increase in the percentage of lean mass” value ([7]; 0.1 mg/kg, 8 weeks) was 5.32%. The “reduction in Chol level” value ([7]; 0.1 mg/kg, 10 weeks) was 30.6%, the “reduction in LDL-C level” value ([7]; 0.1 mg/kg, 10 weeks) was 58.0% and the “body weight reduction” value ([7]; 0.3 mg/kg PO once daily, 10 weeks) was 4.8%. For the same molecule, the fat content reduction ([7]; 0.3 mg/kg, 8 weeks) was 9.16%, the “increase in the percentage of lean mass” value ([7]; 0.3 mg/kg, 8 weeks) was 10.95% and the “reduction in Chol level” value ([7]; 0.3 mg/kg, 10 weeks) was 35.9%. The “reduction in LDL-C level” value ([7]; 0.3 mg/kg, 10 weeks) was 72.7%, the “body weight reduction” value ([7]; 1 mg/kg PO once daily, 10 weeks) was 3.8% and the fat content reduction ([7]; 1 mg/kg, 8 weeks) was 14.07%. For the same molecule, the “increase in the percentage of lean mass” value ([7]; 1 mg/kg, 8 weeks) was 13.52%, the “reduction in Chol level” value ([7]; 1 mg/kg, 10 weeks) was 47.9% and the “reduction in LDL-C level” value ([7]; 1 mg/kg, 10 weeks) was 81.8%. The “average reduction of triglyceride content in liver homogenates” value ([7]; 3 mg/kg) was “up to 36.4%”, the “body weight reduction” value ([7]; 3 mg/kg PO once daily, 10 weeks) was 13.1% and the “reduction in Chol level” value ([7]; 3 mg/kg, 2 weeks) was 52.0%. The “reduction in LDL-C level” value ([7]; 3 mg/kg, 2 weeks) was 84.0%, the fat content reduction ([7]; 3 mg/kg, 8 weeks) was 26.15% and the “increase in the percentage of lean mass” value ([7]; 3 mg/kg, 8 weeks) was 21.94%. For the same molecule, the “reduction in Chol level” value ([7]; 3 mg/kg, 10 weeks) was 53.9%, the “reduction in LDL-C level” value ([7]; 3 mg/kg, 10 weeks) was 79.7% and the “body weight reduction” value ([7]; 10 mg/kg PO once daily, 10 weeks) was 15.8%. The “reduction in Chol level” value ([7]; 10 mg/kg, 2 weeks) was 64.5%, the “reduction in LDL-C level” value ([7]; 10 mg/kg, 2 weeks) was 85.8% and the fat content reduction ([7]; 10 mg/kg, 8 weeks) was 44.35%. For the same molecule, the “increase in the percentage of lean mass” value ([7]; 10 mg/kg, 8 weeks) was 37.91%, the “reduction in Chol level” value ([7]; 10 mg/kg, 10 weeks) was 69.2% and the “reduction in LDL-C level” value ([7]; 10 mg/kg, 10 weeks) was 88.2%. For the same molecule, the body length ([7]; 0.1-10 mg/kg, 8 weeks) was “not affected”, the bone density ([7]; 0.1-10 mg/kg, 8 weeks) was “not affected” and the “cholesterol content in liver homogenates” value ([7]; 2 and 10 weeks) was “did not exert a notable influence”. For the same molecule, the Ballooning score ([7]; 0.1 mg/kg, 8 weeks) was 1.6 ± 0.5, the “Fibrosis Score” value ([7]; 0.1 mg/kg, 8 weeks) was 0.6 ± 0.5 and the Lobular inflammation score ([7]; 0.1 mg/kg, 8 weeks) was 1.0 ± 0.0. For the same molecule, the NAFLD activity score ([7]; 0.1 mg/kg, 8 weeks) was 5.0 ± 0.9, the Steatosis score ([7]; 0.1 mg/kg, 8 weeks) was 2.4 ± 1.1 and the Ballooning score ([7]; 0.3 mg/kg, 8 weeks) was 1.4 ± 0.5. For the same molecule, the “Fibrosis Score” value ([7]; 0.3 mg/kg, 8 weeks) was 0.4 ± 0.5, the Lobular inflammation score ([7]; 0.3 mg/kg, 8 weeks) was 1.3 ± 0.5 and the NAFLD activity score ([7]; 0.3 mg/kg, 8 weeks) was 4.6 ± 1.2. The Steatosis score ([7]; 0.3 mg/kg, 8 weeks) was 2.0 ± 1.4, the Ballooning score ([7]; 1 mg/kg, 8 weeks) was 1.8 ± 0.5 and the “Fibrosis Score” value ([7]; 1 mg/kg, 8 weeks) was 0.4 ± 0.5. The Lobular inflammation score ([7]; 1 mg/kg, 8 weeks) was 1.1 ± 0.4, the NAFLD activity score ([7]; 1 mg/kg, 8 weeks) was 4.4 ± 1.1 and the Steatosis score ([7]; 1 mg/kg, 8 weeks) was 1.5 ± 0.8. For the same molecule, the Ballooning score ([7]; 3 mg/kg, 8 weeks) was 1.1 ± 1.0, the “Fibrosis Score” value ([7]; 3 mg/kg, 8 weeks) was 0.4 ± 0.5 and the Lobular inflammation score ([7]; 3 mg/kg, 8 weeks) was 1.1 ± 0.4. It also gave an NAFLD activity score ([7]; 3 mg/kg, 8 weeks) of 3.4 ± 2.1, a Steatosis score ([7]; 3 mg/kg, 8 weeks) of 1.1 ± 1.0 and a Ballooning score ([7]; 10 mg/kg, 8 weeks) of 1.0 ± 0.9. For the same molecule, the “Fibrosis Score” value ([7]; 10 mg/kg, 8 weeks) was 0.3 ± 0.5, the Lobular inflammation score ([7]; 10 mg/kg, 8 weeks) was 1.0 ± 0.0 and the NAFLD activity score ([7]; 10 mg/kg, 8 weeks) was 3.2 ± 1.3. For the same molecule, the Steatosis score ([7]; 10 mg/kg, 8 weeks) was 1.2 ± 0.8, the liver weight ([7]; all dose groups (0.1-10 mg/kg), 10 weeks) was “significantly decreased” and the “effect on heart weight” value ([7]; various doses (0.1-10 mg/kg), 10 weeks) was “not significant”. For the same molecule, the pathological changes ([8]; 182 days, maximum dose 1.5 mg/kg/day, 8-week recovery) was “only mild Kylo-0603-related pathological changes”, the “perturbations of the hypothalamic-pituitary-thyroid (HPT) axis” value ([8]; Sprague-Dawley rats) was “no perturbations” and the NOAEL at 182 day ([8]; Sprague-Dawley, rat, in vivo, 1.5 mg/kg/day, 182-day study, SD rats, read-out: no-observed-adverse-effect level (NOAEL)) was 1.5 mg/kg/day. For the same molecule, the half-life at 2 μM [9] was 5.93 h and the “plasma stability” value [10] was “stable”.
